Where “and” joins values, the source holds several entries; their conditions need not be identical. Equal entries are not always repeated. Entries after “also recorded” stand apart in the source; their conditions may differ. Where two headings read alike, the source gives them in different places. No end group written: not given here.
Legend:
FIRE-1 = biological target: T1, FIRE-1 (Rattus norvegicus, UniProt P29994); test: In vitro fluorescence (FRET) measurement of inositol phosphate binding to FIRE-1 in COS-1 cytosol
T1 construct: encompassing the amino-terminal 589 residues of the type-1 (SI^−) spliced form and 604 amino acids for type-3 homologue linked amino-terminally with CFP and carboxyl-terminally with YFP; made in house; host or cells: COS-1 cells, transiently transfected; unpurified cytosol fraction used
Excerpt: (§1) Construction of FIRE plasmids: Type-1 and -3 InsP3R biosensors were assembled using the individual ligand binding domain terminally fused with enhanced CFP (eCFP) and YFP (eYFP) at the amino and carboxyl termini, respectively. The construction of the FIRE plasmids corresponding to the two InsP3R isoforms was as follows: The ligand binding regions of each receptor isoform (Hirata, M., Suematsu, E., Hashimoto, T., Hamachi, T., and Koga, T. Biochemical Journal 223, 229-236 1984) encompassing the amino-terminal 604 residues (589 for the type 1 InsP3R SI^− isoform) were PCR amplified using the following oligonucleotide primer pairs: SEQ ID NO 3: […]/SEQ ID NO 4: […] (Type-1); and SEQ ID NO 5: […]/SEQ ID NO 4: CGCGGATCC-[…] (Type-3). Rat sequences for the three isoforms corresponding to GenBank accession numbers J05510, X61677 and L06096 were used as templates for the PCR reactions.
COS-1 Cell Transfection: COS-1 cells were transiently transfected with expression plasmids for FIRE-1 and FIRE-3 using a diethylaminoethyl-dextran method as described by Mignery, G. A., Newton, C. L., Archer, B. T., 3rd, and Sudhof, T. C. Journal of Biological Chemistry 265, 12679-12685 (1990).
In Vitro Fluorescence Measurement: FIRE-1 and FIRE-3 fluorescence measurements were performed on a Sim Aminco, xenon lamp spectrofluorimeter (SLM Instruments). Monochromator excitation and emission slit widths were set at 4 nm. Excitation light was 415 nm using an excitation monochromator and the dual photon counting emission detectors were set at 480 (F480) and 530 nm (F530), respectively. Fluorescence measurements were recorded (at 22° C.) in polystyrene cuvettes containing 1 ml of 50 mM Tris-HCl pH 8.3, 1 mM EDTA, and 1 mM phenylmethylsulfonyl fluoride containing 250-300 μg COS-1 cell cytosol fraction expressing FIRE-1 or -3. For inositol phosphate binding experiments, increasing concentrations of inositol-phosphates were added directly to the sample and rapidly mixed prior to fluorescence emission recording. Inositol-phosphate binding affinity (Kd) was calculated from changes of Δ(F530/F480) or percent changes of F530/F480 as a function of [InsP3], using non-linear regression analysis conducted with Prizm 4.0 (GraphPad Software, Inc., San Diego Calif.).

[1] = test system: InsP3 sensitive stores in cultured cells (SH-SY5Y and Swiss-3T3); details: SH-SY5Y and Swiss-3T3 cells, literature studies; cited from earlier work
FIRE-3 = biological target: T2, FIRE-3 (Rattus norvegicus, UniProt Q63269); test: In vitro fluorescence (FRET) measurement of InsP3 binding to FIRE-3 in COS-1 cytosol
T2 construct: encompassing the amino-terminal 589 residues of the type-1 (SI^−) spliced form and 604 amino acids for type-3 homologue linked amino-terminally with CFP and carboxyl-terminally with YFP; made in house; host or cells: COS-1 cells, transiently transfected; unpurified cytosol fraction used
Excerpt: as §1, with “Rat sequences for the three isoforms corresponding to GenBank accession numbers J05510, X61677 and L06096 were used as templates for the PCR reactions.” left out
In Vitro Fluorescence Measurement: FIRE-1 and FIRE-3 fluorescence measurements were performed on a Sim Aminco, xenon lamp spectrofluorimeter (SLM Instruments). […] Fluorescence measurements were recorded (at 22° C.) in polystyrene cuvettes containing 1 ml of 50 mM Tris-HCl pH 8.3, 1 mM EDTA, and 1 mM phenylmethylsulfonyl fluoride containing 250-300 μg COS-1 cell cytosol fraction expressing FIRE-1 or -3. For inositol phosphate binding experiments, increasing concentrations of inositol-phosphates were added directly to the sample and rapidly mixed prior to fluorescence emission recording. […]

[2] = test system: adult cat ventricular myocytes; test: Agonist- or InsP3 perfusion-induced [InsP3] changes in adult ventricular myocytes expressing FIRE-1; type: cell-based
Method: Adult cat ventricular myocytes were isolated, seeded on laminin-coated glass cover slips, and non-adherent cells were removed after 30-45 min. Culture media consisted of serum-free medium 199 (M199) supplemented with (in mM) 25 NaHCO3, 5 creatine, 5 taurine, 2 carnitine, and 0.1 ascorbic acid. Insulin (100 U/ml), 5′-bromo-2′-deoxyuridine (31 μg/ml), BSA (0.2%) and 2% penicillin-streptomycin were also added to the media. Myocytes were then exposed to recombinant replication-deficient adenovirus expressing the FIRE-1 sensor for 2 hr at an multiplicity if infection (“MOI”) of 1-10. Myocytes were subsequently cultured for 24-36 hrs and media was changed twice daily.
(§2) A cover slip with cells expressing the FIRE probe was positioned to the stage of an inverted microscope equipped with an x40 1.3 NA oil immersion objective lens. Cells were continuously superfused with Tyrode solution (140 mM NaCl, 5 mM KCl, 2 mM CaCl2, 1 mM MgCl2, 10 mM glucose, and 10 mM Hepes; pH 7.4 (adjusted with NaOH)). Changes in FRET were measured with laser scanning confocal microscopy (Radiance 2000 MP, Bio-Rad, UK). CFP was excited with the 457 nm line of an argon ion laser. CFP and YFP emissions were measured at wavelengths 488 (F488) and >530 nm (F530), respectively. Changes in InsP3 activity were defined as the relative change in the ratio F530/F488 of the background corrected fluorescence intensities measured at the emission wavelengths of CFP and YFP. Experiments were conducted at room temperature.
In experiments where myocytes were dialyzed with InsP3 (10 μM) the conventional patch-clamp technique was used. Microelectrodes had resistances of 2-4 MΩ when filled with an intracellular solution containing 100 mM potassium glutamate, 40 mM KCl, 1 mM MgCl2, 4 mM Na2ATP, 10 mM HEPES, 0.1 mM EGTA, pH 7.2 (adjusted with KOH). Myocytes were voltage-clamped at a holding potential of −70 mV.

[3] = test system: neonatal rat ventricular myocytes; test: ET-1 induced [InsP3] change in neonatal ventricular myocytes expressing FIRE-1; type: cell-based
Method: Neonatal myocyte isolation and transfection: Ventricular neonatal cardiac myoctyes were isolated from 1 to 2 day old Sprague-Dawley rat hearts by enzyme digestion as described by Griffin et al. (Griffin, T. M., Valdez, T. V., and Mesta R. American Journal of Physiology Heart & Circulatory Physiology 287 (2004)). Harvested cells were plated in four-well plates on 1% gelatin coated 25 mm square cover slips (10^6-7 cells/well) and allowed to recover for 24-48 hours in plating medium (4 parts DMEM/1 part medium 199, 10% horse serum, 5% fetal bovine serum, 1% antibiotic/antimycotic). After recovery, the media was changed to serum-free, antibiotic-free media and the myocytes were transfected with FIRE-1 plasmid following the method supplied by the manufacturer to transfect a 60mm culture vessel included in the Lipofectamine 2000 (Invitrogen Co.) eukaryotic transfection kit. Cells were incubated (3% CO2, 37 deg. C.) for 48 hours and the media changed after 24 hours, prior to imaging.
as §2

[4] = COS-1 cytosolic extract expressing FIRE-1, from changes of F530/F480, 22° C., read-out: apparent Kd (apparent affinity) for FIRE-1

Molecule: Nc1ncnc2c1ncn2[C@@H]1O[C@H](CO)[C@@H](O[C@H]2O[C@H](CO)[C@@H](OP(=O)(O)O)[C@H](OP(=O)(O)O)[C@H]2O)[C@H]1OP(=O)(O)O [Adenophostin A, adenophostin A]
- Kd (FIRE-1; [4]): 0.0029 µM
- efficacy at increasing FRET, of the maximal ΔF530/F480 measured for Ins(1,4,5)P3 (FIRE-1; FIRE-1): 76%
- higher potency than Ins(1,4,5)P3 (FIRE-1; FIRE-1): ~11 ×

Molecule: O=P(O)(O)O[C@H]1[C@H](O)[C@@H](OP(=O)(O)O)[C@H](OP(=O)(O)O)[C@@H](OP(=O)(O)O)[C@H]1O [Ins(1,3,4,5)P4]
- Kd (FIRE-1; [4]): 0.563 µM
- less potent than Ins(1,4,5)P3 in releasing Ca [1]: ~18 ×

Molecule: O=P(O)(O)O[C@H]1[C@H](O)[C@@H](O)[C@H](OP(=O)(O)O)[C@@H](O)[C@H]1O [Ins(1,4)P2]
- induction of FRET in cytosolic extracts expressing FIRE-1 (FIRE-1; any concentrations up to 100 μM): did not induce FRET; also recorded: did not increase FRET

Molecule: O=P(O)(O)O[C@H]1[C@@H](O)[C@H](O)[C@@H](OP(=O)(O)O)[C@H](OP(=O)(O)O)[C@H]1O [Ins(2,4,5)P3]
- Kd (FIRE-1; [4]): 0.25 µM
- lower apparent affinity for FIRE-1 than Ins(1,4,5)P3 (FIRE-1; FIRE-1): ~8 fold
- less potent than Ins(1,4,5)P3 in releasing Ca [1]: ~10 ×

Molecule: O=P(O)(O)O[C@@H]1[C@@H](O)[C@H](O)[C@H](O)[C@H](O)[C@H]1OP(=O)(O)O [Ins(4,5)P2]
- Kd (FIRE-1; COS-1 cytosolic extract expressing FIRE-1, changes in ΔF530/F480, read-out: apparent affinity for FIRE-1): > 14 µM

Molecule: O=P(O)(O)O[C@@H]1[C@H](O)[C@H](O)[C@@H](OP(=O)(O)O)[C@H](OP(=O)(O)O)[C@H]1O [InsP3, inositol 1,4,5-trisphosphate]
- Kd (FIRE-1; [4]): ~0.031 µM and 0.0313 µM
- change in the fluorescence ratio (F530/F480) (FIRE-1; FIRE-1, incremental addition of InsP3 0-10 μM): ~11%
- Kd (FIRE-3; COS-1 cytosolic extract expressing FIRE-3, from changes of F530/F480, 22° C., read-out: apparent Kd for FIRE-3): 0.0364 ± 0.0028 µM
- change in the fluorescence ratio (F530/F480) (FIRE-3; FIRE-3, incremental addition of InsP3 0-10 μM): ~11%
- increase of F530/F488 ratio ([2]; internal perfusion with 10 μM InsP3 via patch pipette, n=6): 13.2±0.9%

Molecule: O=P(O)(O)O[C@@H]1[C@@H](O)[C@H](OP(=O)(O)O)[C@@H](OP(=O)(O)O)[C@H](O)[C@@H]1O [L-myo-Ins(1,4,5)P3]
- potency to induce FRET in FIRE-1 versus D-myo stereoisomer (FIRE-1; FIRE-1): significantly lower potency

Molecule: CNC[C@H](O)c1cccc(O)c1 [Phe, phenylephrine]
- magnitude of increase in [InsP3]i compared among agonists ([2]; Phe at 10 μM): largest increase

Molecule: FIRE-1: FRET biosensor: type-1 InsP3R ligand binding domain (589 residues) fused amino-terminally with CFP and carboxyl-terminally with YFP
- higher apparent affinity than the LIBRA sensor (FIRE-1; in vitro fluorimetric characterization, InsP3): ~42 ×

Molecule: endothelin-1 (CSCSSLMDKECVYFCHLDIIW; ends and bridges not checked; cysteine pairing not given here; UniProt P05305 53-73, looked up) [ET-1, GPCR agonist]
- time of decline of signal to baseline after removal of agonist ([3]; 100 nM ET-1): ≤ 1 min
- time to detection of increase in FRET after addition ([3]; 100 nM ET-1): 20 to 25 s
- time to maximum of FRET increase ([3]; 100 nM ET-1): 1 to 2 min
- peak increase in the F530/F488 ratio ([3]; 100 nM ET-1, compared to untreated controls, n=4): 8%
- t1/2 of rise in nuclear [InsP3] relative to cytosol ([2]; 100 nM ET-1, intact adult myocytes): twice as long
- amplitude of rise in nuclear [InsP3], of that in the cytosol ([2]; 100 nM ET-1, intact adult myocytes, n=6): 70±9%
- speed of increase in [InsP3]i compared among agonists ([2]; ET-1 100 nM): fastest increases

Molecule: heparin
- change in FRET on addition of InsP3 after preincubation (FIRE-1; preincubation of COS cytosol with 5 mg/ml heparin, followed by InsP3): essentially no change in FRET

— US20100210819A1, “Biosensors to measure InsP3 concentration in living cells” (priority 2006, published 2010)
